According to the supplement of paper PMC8967900:

Columns and labels:
Experiment in all cases: selective drug sensitivity score (sDSS, relative to normal bone marrow) (sDSS (score)); higher = more potent and effective on the cell line relative to normal bone marrow cells
Details in all cases: 72 h
MHH-CALL-2 = system: MHH-CALL-2
COG-LL-319h = system: COG-LL-319h
MN-60 = system: MN-60
ALL-PO = system: ALL-PO
TMD5 = system: TMD5
COG-LL-402h = system: COG-LL-402h
PEER = system: PEER
JURKAT = system: JURKAT
MOLT-4 = system: MOLT-4
MOLT-16 = system: MOLT-16
MHH-CALL-4 = system: MHH-CALL-4
CCRF-HSB2 = system: CCRF-HSB2
697 = system: 697
MOLT-14 = system: MOLT-14
COG-LL-394h = system: COG-LL-394h
KOPN-8 = system: KOPN-8
COG-LL-317 = system: COG-LL-317
P12-ICHIKAWA = system: P12-ICHIKAWA
380 = system: 380
TANOUE = system: TANOUE
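Note: ALL cell lines in 384-well plates, five doses spanning 10,000-fold, each plate scaled between vehicle and 100 µmol/L benzalkonium chloride controls, sDSS an adapted area-under-curve metric.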

SMILES	selective drug sensitivity score (MHH-CALL-2)	selective drug sensitivity score (COG-LL-319h)	selective drug sensitivity score (MN-60)	selective drug sensitivity score (ALL-PO)	selective drug sensitivity score (TMD5)	selective drug sensitivity score (COG-LL-402h)	selective drug sensitivity score (PEER)	selective drug sensitivity score (JURKAT)	selective drug sensitivity score (MOLT-4)	selective drug sensitivity score (MOLT-16)	selective drug sensitivity score (MHH-CALL-4)	selective drug sensitivity score (CCRF-HSB2)	selective drug sensitivity score 697	selective drug sensitivity score (MOLT-14)	selective drug sensitivity score (COG-LL-394h)	selective drug sensitivity score (KOPN-8)	selective drug sensitivity score (COG-LL-317)	selective drug sensitivity score (P12-ICHIKAWA)	selective drug sensitivity score 380	selective drug sensitivity score (TANOUE)
CCCCOc1nc(N)c2c(n1)N(Cc1cccc(CN3CCCC3)c1)CC(=O)N2 [Vesatolimod] (top concentration 10000 nM)	-3.52	0.38	-2.32	-3.52	-3.52	-3.52	-3.52	-3.42	-3.52	-3.52	-3.52	-3.52	-3.42	-3.52	-3.32	-3.22	-2.92	-3.52	-3.52	-3.32
CC(C)C[C@H](NC(=O)[C@@H](COC(C)(C)C)NC(=O)[C@H](Cc1ccc(O)cc1)NC(=O)[C@H](CO)NC(=O)[C@H](Cc1c[nH]c2ccccc12)NC(=O)[C@H](Cc1cnc[nH]1)NC(=O)[C@@H]1CCC(=O)N1)C(=O)N[C@@H](CCCNC(=N)N)C(=O)N1CCC[C@H]1C(=O)NNC(N)=O [Goserelin] (top concentration 10000 nM)	-0.06	4.84	-0.06	-0.06	-0.06	-0.06	-0.06	-0.06	-0.06	0.14	0.14	0.04	-0.06	-0.06	-0.06	-0.06	-0.06	-0.06	-0.06	-0.06
CC1(C)CCC(CN2CCN(c3ccc(C(=O)NS(=O)(=O)c4ccc(NCC5CCOCC5)c([N+](=O)[O-])c4)c(Oc4cnc5[nH]ccc5c4)c3)CC2)=C(c2ccc(Cl)cc2)C1 [Venetoclax] (top concentration 1000 nM)	28.7	28.8	-4.4	30.2	20.8	14.1	-2.9	-3.3	8.88e-16	6	14.2	-2.9	10.1	8	4.5	28.9	2.2	-2.4	29	-4.4
CC[C@@H]1C(=O)OC[C@@H]1Cc1cncn1C [Pilocarpine] (top concentration 40000 nM)	4.44	-1.56	-1.56	-1.56	-1.56	-1.56	-1.56	-1.56	-1.26	1.94	-1.56	-1.56	-1.56	-0.36	-1.56	-1.56	-1.56	-1.56	-1.56	-0.36
O=C(O)CC1CC(c2ccccc2)=NO1 (stereo not given) [VGX-1027] (top concentration 10000 nM)	-0.04	-0.04	-0.04	-0.04	-0.04	-0.04	-0.04	-0.04	-0.04	0.16	-0.04	-0.04	-0.04	-0.04	-0.04	-0.04	-0.04	-0.04	-0.04	-0.04
CCOc1ccn(-c2ccc(F)cc2)c(=O)c1C(=O)Nc1ccc(Oc2ccnc(N)c2Cl)c(F)c1 (top concentration 2500 nM)	0	0	0	2.7	0	0	3.9	0	0.1	0	0	3.2	0.4	0	0.8	0	0	3	0	0
O=C1CCC(N2C(=O)c3ccccc3C2=O)C(=O)N1 (stereo not given) [Thalidomide] (top concentration 10000 nM)	-0.14	-0.14	-0.14	-0.14	-0.14	-0.14	-0.14	-0.14	-0.14	-0.14	-0.14	-0.14	-0.14	-0.14	-0.14	-0.14	-0.14	-0.14	-0.14	-0.14
CCS(=O)(=O)N1CC(CC#N)(n2cc(-c3ncnc4[nH]ccc34)cn2)C1 [Baricitinib] (top concentration 2500 nM)	-1.94	-1.94	-1.94	-1.94	-1.94	-1.94	0.96	-1.94	-1.94	-1.94	-1.24	-1.94	-1.94	-1.94	-1.94	-1.94	-1.94	-1.94	-1.94	-1.94
Cc1cc(Nc2nc(N[C@@H](C)c3ncc(F)cn3)ncc2Cl)[nH]n1 [AZD1480] (top concentration 1000 nM)	-1.38	-1.68	-4.28	0.72	-1.98	-3.98	-3.48	-3.68	-3.28	-4.28	-0.78	-1.78	-3.78	-4.28	-4.18	-4.28	-2.78	-4.28	-0.58	-4.28
CCCCNc1ncc(C(=O)NCc2ccc(-n3ccnc3)cc2)c(NC2CCC(O)CC2)n1 (stereo not given) [UNC2881] (top concentration 2500 nM)	0	0	0	7.2	0.5	0	1.5	0	0.4	0.2	0.5	0	1	0	0	0.2	0.6	0	0	0
CCN1CCN(c2ccc(Nc3cc(N(C)C(=O)Nc4c(Cl)c(OC)cc(OC)c4Cl)ncn3)cc2)CC1 [Infigratinib] (top concentration 1000 nM)	0	0	0	0	0	0	0	0	0	0	0	0	0	0	0	0	0	0	0	0
Cc1ccc(-c2cc(C(F)(F)F)nn2-c2ccc(S(N)(=O)=O)cc2)cc1 [Celecoxib] (top concentration 10000 nM)	0.34	0.04	-0.06	2.84	1.34	-0.06	0.94	0.14	0.14	0.34	-0.06	-0.06	-0.06	-0.06	-0.06	0.74	-0.06	0.24	7.74	-0.06
C=CC(=O)Nc1cccc(Nc2nc(Nc3ccc(N4CCN(C(C)=O)CC4)cc3OC)ncc2C(F)(F)F)c1 [Rociletinib] (top concentration 10000 nM)	1.94	0.24	-0.76	10.3	-2.06	5.24	4.24	2.64	2.04	2.04	2.14	1.24	3.54	2.54	5.24	1.14	1.44	1.94	-0.16	-3.16
C[C@@H]1CN(C(=O)c2ccc(NC(=O)c3cc(O[C@H](C)c4c(Cl)ccc(F)c4Cl)c(N)nn3)cc2)C[C@H](C)N1 [Ensartinib] (top concentration 1000 nM)	-2.84	-2.64	-2.84	0.26	-1.84	-2.34	1.96	-2.54	-0.54	-0.74	-2.84	-0.64	0.26	-1.74	0.86	1.16	-2.34	-2.54	0.06	-2.84
COc1cc2c(Nc3ccc(Cl)c(Cl)c3F)ncnc2cc1OC[C@@H]1C[C@@H]2CN(C)C[C@@H]2C1 [Tesevatinib] (top concentration 1000 nM)	1.44	-1.36	0.24	2.34	3.24	1.64	1.84	-0.16	-0.86	1.74	2.34	3.44	-0.66	-0.56	-0.36	-0.86	0.04	-0.46	-0.96	-1.36
Cc1ccc(-n2nc(C(C)(C)C)cc2NC(=O)Nc2ccc(OCCN3CCOCC3)c3ccccc23)cc1 [Doramapimod] (top concentration 10000 nM)	4.56	1.06	0.66	4.16	-0.14	2.66	1.86	1.16	2.46	4.16	-0.24	2.76	4.96	-0.24	2.16	3.76	10.9	0.26	-0.24	1.16
C[C@@H]1CCN(C(=O)CC#N)C[C@@H]1N(C)c1ncnc2[nH]ccc12 [Tofacitinib] (top concentration 5000 nM)	-7.86	-7.86	-7.86	-7.86	-7.86	-7.86	-4.66	-7.86	-7.86	-7.86	-4.96	-3.56	-6.86	-7.66	-7.86	-7.66	-7.86	-7.86	-7.86	-7.86
